The test system of series [1] is Wnt/β-catenin transcription. Nature of the series: Wnt-3A-stimulated TOPFlash reporter assay in HEK293 cells. The format is cell-based. The settings on record: Homo sapiens, HEK293, 8 h, Wnt-3A conditioned medium, 8 hour treatment; read-out: Inhibition Wnt/β-catenin transcription TopFlash IC50.
For series [2] the following is noted: niclosamide dosed orally as a solution at 200 mg/kg, reported (Osada 2011); cited from earlier work.
Series [3] has as its system colon cancer cell line HCT116. Nature of the series: Cell proliferation assay (MTS). The series is classed as cell-based. The note with it: Homo sapiens, HCT-116; HCT116, 72 hours, 0.04 to 10 μM; read-out: Anti-proliferation IC50 (μM), MTS assay. The protocol:
The colon cancer cell line HCT116 was used in the cell proliferation assay. The cells were plated in 100 μl of growing medium/well in 96-well plates at 5,000 cells per well and treated with compounds from 0.04 to 10 μM for 72 hours, after which point the cells were analyzed by colorimetric MTS assay (Promega, Madison, Wis., USA). Data were fit using GraphPad Prism (mean±SEM, n 3).
(Formazan colour is commonly taken as a measure of viable cells.)

For series [4], the target named is T1, Frizzled1-GFP (Homo sapiens, UniProt Q9UP38).
T1 construct: expressed in transfected cells
Put plainly: Frizzled internalization assay (Fzd1-GFP). The series is classed as cell-based. Further details: key: Punctate similar to control=0; trace amount of punctate greater than control=1; moderate=3; strong=5. The note with it: 6 hours, 0-5 point scale. Here is the method:
The Fzd1-GFP assay was performed following a procedure similar to previously published work (Chen, M. Y.; Wang, J. B.; Lu, J. Y.; Bond, M. C.; Ren, X. R.; Lyerly, H. K.; Barak, L. S.; Chen, W. Biochemistry 2009, 48, 10267). Cells stably expressing Frizzled1-GFP plated in confocal dishes were treated, after 24 hours, with 12.5 μM of test compound or DMSO for 6 hours at 37° C. followed by fixation with 4% paraformaldehyde. The cells were then examined by microscopy using a LSM 510-Meta confocal microscope (Carl Zeiss, Thornwood, N.Y., USA) equipped with 40× and 100× apo chromat objectives. YFP was excited using a 488-nm argon laser line. Images were processed using the LSM software Image Browser (CarlZeiss, Thornwood, N.Y., USA). Plates were read twice in blinded fashion using a 0-5 point scale. ^aPunctate similar to control=0, trace amount of punctate greater than control=1, moderate=3, strong=5.

Series [5] relates to β-catenin. Nature of the series: Western blot of cytosolic β-catenin in HCT-116 cells. The series is classed as cell-based. The note with it: Homo sapiens, HCT-116, 18 h, 2.0 μM compound, read-out: Remaining cytosolic β-catenin. The protocol:
Western blots were performed following a procedure similar to previously published work (Osada, T.; Chen, M. Y.; Yang, X. Y.; Spasojevic, I.; Vandeusen, J. B.; Hsu, D.; Clary, B. M.; Clay, T. M.; Chen, W.; Morse, M. A.; Lyerly, H. K. Cancer Research 2011, 71, 4172). HCT-116 cells were grown to about 80% confluency in poly-D-lysine coated six-well plates 48 hours before treatment and followed by 2.0 μM compounds or DMSO incubation for 18 hours in growth medium. After treatment, the cytosolic fraction was isolated as described (Osada, T.; Chen, M. Y.; Yang, X. Y.; Spasojevic, I.; Vandeusen, J. B.; Hsu, D.; Clary, B. M.; Clay, T. M.; Chen, W.; Morse, M. A.; Lyerly, H. K. Cancer Research 2011, 71, 4172). Immunoblots using antibodies to […] (E-5, Santa Cruz Biotechnology catalog number sc-7963) was used to detect β-catenin protein levels in the cytosol, and immunoblots using antibodies to β-actin (C-4, Santa Cruz Biotechnology, catalog number SC-47778) was used for loading controls.
Inhibition of Wnt signaling was determined by analyzing the reduction of cytosolic β-catenin by Western blot (FIG. 1, 2).
On the technique in general: Immunoblotting shows a protein as a band on a membrane.

The nature of series [6]: Pharmacokinetic studies, niclosamide in mouse plasma. The series is classed as in vivo, CD1 mice. The note with it: mice. The protocol:
For niclosamide dosed IV, niclosamide was dissolved in a solvent of 67% polyethylene glycol 400 and 33% N,N-dimethylacetamide at a concentration of 3.27 mg/mL and tail vein injected at a dose of 2.6 mg/kg of body weight. Blood samples were obtained at predose and at 0.08, 0.17, 0.33, 0.67, 1.5, 4, 8, 12 hours after drug administration. For oral dosing of compound 74, compound 74 was dissolved in a solvent of 90% polyethylene glycol 300 and 10% 1-methyl-2-pyrrolidinone at a concentration of 20 mg/mL and gavaged at a dose of 200 mg/kg of body weight. Blood samples were obtained at predose and at 0.25, 0.5, 1, 2, 4, 8 hours after drug administration. For oral dosing of compound 61, compound 61 was dissolved in corn oil at a concentration of 20 mg/mL and dosed at 200 mg/kg of body weight. Blood samples were obtained at predose and at 0.25, 0.5, 0.75, 1, 1.5, 4, 8, 12, 24, 48, and 72 hours after drug administration. All the solvent reagents were purchased from Sigma-Aldrich (St. Louis, Mo., USA). CD1 mice were used in the pharmacokinetic studies. Quantification of niclosamide in mouse plasma was done by LC/MS-MS using methods similar to those previously published (Osada, T.; Chen, M. Y.; Yang, X. Y.; Spasojevic, I.; Vandeusen, J. B.; Hsu, D.; Clary, B. M.; Clay, T. M.; Chen, W.; Morse, M. A.; Lyerly, H. K. Cancer Research 2011, 71, 4172.).

Series [7] relates to High Fat Diet (HFD)-Induced Hepatic Steatosis. Put plainly: Reduction of high fat diet (HFD)-induced hepatic steatosis. The settings on record: 200 mg/kg oral gavage, three months. The format is in vivo, C57BL/6J mice. The protocol:
Five week old male C57BL/6J mice were fed with chow or high fat diet for two months, followed by same diet and oral gavage of vehicle (corn oil) or compound 61 at 200 mg/kg for three months (daily for 6 days a week from Monday to Saturday). Liver tissue samples were collected after the three month treatment. Pictures shown in FIG. 9 are representative liver sections stained with H&E. A. Chow mice with vehicle; B. Chow mice with compound 61; C. HFD mice with vehicle; D. HFD mice with compound 61. […] The white fat deposits look similar in both panel A and B. However, when mice were fed a high fat diet (panel C), a large amount of white fatty deposits can be seen along with a large amount of dysplastic liver tissue.

T1 sequence (Q9UP38 70-647): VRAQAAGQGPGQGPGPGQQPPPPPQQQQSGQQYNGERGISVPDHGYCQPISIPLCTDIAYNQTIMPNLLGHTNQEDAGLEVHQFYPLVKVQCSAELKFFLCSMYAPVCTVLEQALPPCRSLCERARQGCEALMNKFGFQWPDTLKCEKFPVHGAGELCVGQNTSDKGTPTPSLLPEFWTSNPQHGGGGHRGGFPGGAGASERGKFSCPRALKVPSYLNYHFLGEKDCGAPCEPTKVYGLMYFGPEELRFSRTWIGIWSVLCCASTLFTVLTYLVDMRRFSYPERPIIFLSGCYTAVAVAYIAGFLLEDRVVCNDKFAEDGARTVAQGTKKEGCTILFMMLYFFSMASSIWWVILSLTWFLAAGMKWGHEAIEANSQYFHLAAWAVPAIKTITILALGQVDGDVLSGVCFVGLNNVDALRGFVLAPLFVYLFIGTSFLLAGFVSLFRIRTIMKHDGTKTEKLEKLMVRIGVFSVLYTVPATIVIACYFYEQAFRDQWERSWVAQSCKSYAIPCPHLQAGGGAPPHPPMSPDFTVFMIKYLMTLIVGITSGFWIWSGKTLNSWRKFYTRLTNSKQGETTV

In the case of `O=C(Nc1ccc([N+](=O)[O-])cc1Cl)c1cc(Cl)ccc1O` [A, 5-chloro-N-(2-chloro-4-nitrophenyl)-2-hydroxybenzamide, reference compound], the results for the IC50 in series [1] and in series [3] were 0.34 ± 0.08 µM and 0.45 ± 0.05 µM, respectively. The “Time plasma levels of niclosamide were above the TOPFlash IC50” value in series [2] is on record as “less than 1 hour”. The “Fzd1-GFP internalization @12.5 μM” value in series [4] was 5. In series [5], the activity at 2 µM came out at 8%.
Consider `O=C(Nc1ccc(C(F)(F)F)cc1Cl)c1cc(Cl)ccc1O` [Compound 7, 5-chloro-N-(2-chloro-4-(trifluoromethyl)phenyl)-2-hydroxybenzamide], for which the IC50 in series [1] stood at 0.56 ± 0.21 µM; in series [3] it was 0.54 ± 0.08 µM. Besides, the “Fzd1-GFP internalization @12.5 μM” value in series [4] is listed as 5. In series [5], the activity at 2 µM was 6%. Moreover, the “Pharmacokinetic properties after oral administration, in words” value in series [6] is recorded as “poor pharmacokinetic properties”.
As to `CCCCCCCC(=O)Oc1ccc(Cl)cc1C(=O)Nc1ccc([N+](=O)[O-])cc1Cl` [Compound 61, 4-Chloro-2-((2-chloro-4-nitrophenyl)carbamoyl)phenyl octanoate], the “Liver fat deposits and tissue architecture (H&E sections), high fat diet” value in series [7] (high fat diet) is reported as “limited white fatty deposits without the dysplastic tissue architecture”. Moreover, the “Effect on the liver (H&E sections), chow diet” value in series [7] (normal chow diet) is given as “minimal to no effect”. For the same compound, the IC50 in series [1] was 0.23 ± 0.06 µM; in series [3], 0.61 ± 0.11 µM. Also, the “Fzd1-GFP internalization @12.5 μM” value in series [4] is given as 5. In addition, in series [5], the activity at 2 µM came to 8%. In addition, in series [6] (compound 61 in corn oil, 200 mg/kg oral), the “Plasma exposure of niclosamide compared to 200 mg/kg niclosamide dosed orally, in words” value is given as “significantly increased plasma exposure of niclosamide”.
`O=c1oc2ccc(Cl)cc2c(=O)n1-c1ccc(C(F)(F)F)cc1` [Compound 74, 6-chloro-3-(4-(trifluoromethyl)phenyl)-2H-benzo[e][1,3]oxazine-2,4(3H)-dione]: the IC50 in series [1] came to 0.32 ± 0.03 µM. The “Pharmacokinetic properties after oral administration, in words” value in series [6] is “poor pharmacokinetic properties”.
